# Results published in patent US9504685B2, “Method for treating a pulmonary hypertension condition” (Gilead Sciences, Inc., priority 2006, dated 2016).
# Tested on: subjects with PAH
# Assay: Example 2 (ARIES-1) placebo-controlled Phase III trial, efficacy
# Assay type: in vivo, human
# Details: for Clinical worsening event: Atrial septostomy / Clinical worsening event: Death / Clinical worsening event: Escape criteria / Clinical worsening event: Hospitalization for PAH / Clinical worsening event: Lung transplantation / Clinical worsening event: Study discontinuation due to addition of PAH treatment / Clinical worsening: Total subjects with ≧1 event / subjects hospitalized for worsening right heart failure / subjects who had an event of clinical worsening: 12 weeks; for Change in 6MWD from baseline to Week 12, mean: ITT population; for geometric mean percent change in plasma BNP, decrease from baseline / geometric mean percent change in plasma ET-1, increase from baseline: Week 12
# Procedure: The primary objective of this study was to determine the effect of ambrisentan on exercise capacity in subjects with pulmonary arterial hypertension (PAH). The secondary objectives of this study were to evaluate effects of ambrisentan on other clinical measures of PAH, as well as safety and tolerability of the study drug.
# Study drug was provided in round, biconvex, oral tablets that were identical in appearance. Three strengths of active study drug containing 2.5 mg, 5 mg or 10 mg of ambrisentan were used in this study. All study drug was packaged in blister cards. Subjects were instructed to take study drug once daily (q.d.) by mouth (p.o.) in the morning, with or without food.
# The maximum study duration was up to 14 weeks from the time of initial screening procedures to the final study visit (Week 12). Screening procedures were performed a maximum of 2 weeks prior to the first dose of study drug. The maximum duration of study drug treatment was 12 weeks.
# Men and women, 18 years of age or older, with idiopathic PAH, PAH associated with CTD, e.g., mixed CTD, CREST syndrome, systemic sclerosis (scleroderma), overlap syndrome or systemic lupus erythematosus, or PAH associated with anorexigen use or HIV infection were enrolled in this study. Subjects were to have a documented mean PAP≧25 mmHg, PVR>3 mmHgL/min, and PCWP or LVEDP<15 mmHg. Subjects must have been able to walk a distance of at least 150 m but no more than 450 m during 2 consecutive 6MWTs to be eligible for inclusion in the study.
# After a 2 week screening period, eligible subjects were stratified based on the underlying etiology of PAH (idiopathic or non-idiopathic) and were randomized to 1 of 3 treatment groups (placebo, 5 mg or 10 mg ambrisentan) in a ratio of 1:1:1. One blinded dose reduction was permitted during the 12-week treatment period in the event of study drug intolerance (e.g., 10 mg to 5 mg, 5 mg to 2.5 mg, placebo to placebo). Subjects received a daily dose of 2.5 mg ambrisentan only if they reduced from the 5 mg dose group. Subjects were assessed for efficacy and safety at monthly intervals.
# Therefore, after a minimum treatment period of 4 weeks, subjects who met 2 or more of the following predefined early escape criteria may have been removed from the study: • (a) a decrease from baseline of at least 20% in 6MWD; • (b) an increase of 1 or more WHO functional class; • (c) worsening right ventricular failure (e.g., as indicated by increased jugular venous pressure, new or worsening hepatomegaly, ascites or peripheral edema); • (d) rapidly progressing cardiogenic, hepatic or renal failure; and/or • (e) refractory systolic hypotension (systolic blood pressure <85 mmHg).
# The primary efficacy endpoint was change from baseline in 6MWD evaluated after 12 weeks of treatment compared to placebo.
# The secondary efficacy endpoints included: • (a) time to clinical worsening of PAH, as defined by the time from randomization to the first occurrence of death, lung transplantation, hospitalization for PAH, atrial septostomy, study discontinuation due to addition of other PAH therapeutic agents, or study discontinuation due to 2 or more early escape criteria; • (b) change from baseline measured after 12 weeks of treatment compared to placebo in: • (i) WHO functional class; • (ii) SF-36® health survey physical functioning scale; • (iii) BDI immediately following exercise; and/or • (iv) an assessment of the safety and tolerability of the study drug; and • (c) change from baseline measured after 12 weeks of treatment compared to placebo in plasma levels of ET-1, BNP and cTnT. Safety Assessments
# For the ITT population, subjects were considered as belonging to their randomized treatment group, regardless of the actual treatment received.
# The primary efficacy endpoint was the change from baseline in 6MWD evaluated after 12 weeks of treatment compared to placebo, where the last observation was carried forward. […]
# [1] = 5 mg once daily, baseline to Week 12
# [2] = 10 mg once daily, baseline to Week 12
structure (smiles),measurement,setting,value
COC(c1ccccc1)(c1ccccc1)[C@H](Oc1nc(C)cc(C)n1)C(=O)O [ambrisentan],placebo-adjusted improvement in mean 6MWD at Week 12,5 mg once daily,+30.6 m
same,subjects at least maintaining their baseline WHO functional class at Week 12,5 mg once daily,98.5%
same,Clinical worsening event: Atrial septostomy,5 mg once daily,0 (0.0) subjects (% of ITT population)
same,Clinical worsening event: Death,5 mg once daily,1 (1.5) subjects (% of ITT population)
same,Clinical worsening event: Escape criteria,5 mg once daily,0 (0.0) subjects (% of ITT population)
same,Clinical worsening event: Hospitalization for PAH,5 mg once daily,2 (3.0) subjects (% of ITT population)
same,Clinical worsening event: Lung transplantation,5 mg once daily,0 (0.0) subjects (% of ITT population)
same,Clinical worsening event: Study discontinuation due to addition of PAH treatment,5 mg once daily,0 (0.0) subjects (% of ITT population)
same,Clinical worsening: Total subjects with ≧1 event,5 mg once daily,3 (4.5) subjects (% of ITT population)
same,subjects hospitalized for worsening right heart failure,5 mg once daily,1 subjects
same,subjects who had an event of clinical worsening,5 mg once daily,3 subjects
same,"Change in 6MWD from baseline to Week 12, mean",5 mg once daily,+22.8 meters
same,"geometric mean percent change in plasma BNP, decrease from baseline",5 mg once daily,30%
same,"geometric mean percent change in plasma ET-1, increase from baseline",5 mg once daily,96%
same,"Change in SF-36 Bodily pain, mean (SD)",[1],−1.43 ± 13.21
same,"Change in SF-36 General health, mean (SD)",[1],+0.08 ± 8.45
same,"Change in SF-36 Mental component summary, mean (SD)",[1],+0.50 ± 10.50
same,"Change in SF-36 Mental health, mean (SD)",[1],+0.81 ± 9.67
same,"Change in SF-36 Physical component summary, mean (SD)",[1],+1.88 ± 8.68
same,"Change in SF-36 Physical functioning, mean (SD)",[1],+3.86 ± 7.14
same,"Change in SF-36 Role-emotional, mean (SD)",[1],+1.41 ± 13.95
same,"Change in SF-36 Role-physical, mean (SD)",[1],+4.22 ± 10.52
same,"Change in SF-36 Social functioning, mean (SD)",[1],+1.11 ± 13.63
same,"Change in SF-36 Vitality, mean (SD)",[1],+2.38 ± 10.06
same,Change in WHO functional class: +1 class,[1],1 (1.5) subjects (% of ITT population)
same,Change in WHO functional class: +2 classes,[1],0 (0.0) subjects (% of ITT population)
same,Change in WHO functional class: no change,[1],47 (70.1) subjects (% of ITT population)
same,Change in WHO functional class: −1 class,[1],18 (26.9) subjects (% of ITT population)
same,Change in WHO functional class: −2 classes,[1],1 (1.5) subjects (% of ITT population)
same,placebo-adjusted improvement in mean 6MWD at Week 12,10 mg once daily,+51.4 m
same,subjects at least maintaining their baseline WHO functional class at Week 12,10 mg once daily,95.5%
same,Clinical worsening event: Atrial septostomy,10 mg once daily,0 (0.0) subjects (% of ITT population)
same,Clinical worsening event: Death,10 mg once daily,1 (1.5) subjects (% of ITT population)
same,Clinical worsening event: Escape criteria,10 mg once daily,2 (3.0) subjects (% of ITT population)
same,Clinical worsening event: Hospitalization for PAH,10 mg once daily,2 (3.0) subjects (% of ITT population)
same,Clinical worsening event: Lung transplantation,10 mg once daily,0 (0.0) subjects (% of ITT population)
same,Clinical worsening event: Study discontinuation due to addition of PAH treatment,10 mg once daily,1 (1.5) subjects (% of ITT population)
same,Clinical worsening: Total subjects with ≧1 event,10 mg once daily,3 (4.5) subjects (% of ITT population)
same,subjects hospitalized for worsening right heart failure,10 mg once daily,1 subjects
same,subjects who had an event of clinical worsening,10 mg once daily,3 subjects
same,"Change in 6MWD from baseline to Week 12, mean",10 mg once daily,+43.6 meters
same,"geometric mean percent change in plasma BNP, decrease from baseline",10 mg once daily,45%
same,"geometric mean percent change in plasma ET-1, increase from baseline",10 mg once daily,48%
same,"Change in SF-36 Bodily pain, mean (SD)",[2],+2.26 ± 12.22
same,"Change in SF-36 General health, mean (SD)",[2],+3.25 ± 8.81
same,"Change in SF-36 Mental component summary, mean (SD)",[2],+2.11 ± 13.17
same,"Change in SF-36 Mental health, mean (SD)",[2],+1.55 ± 12.66
same,"Change in SF-36 Physical component summary, mean (SD)",[2],+4.79 ± 7.90
same,"Change in SF-36 Physical functioning, mean (SD)",[2],+4.52 ± 7.16
same,"Change in SF-36 Role-emotional, mean (SD)",[2],+2.98 ± 17.37
same,"Change in SF-36 Role-physical, mean (SD)",[2],+6.67 ± 10.35
